# Results published in patent US20200087258A1, “INHIBITOR OF CITRATE TRANSPORTER AND THEIR USE IN THERAPY” (Eternygen GmbH, priority 2017, published 2020).
# Key:
# INDY [1] = molecular target: T1, INDY (Homo sapiens, UniProt Q86YT5); assay: 14C-citrate uptake in HepG2 cells endogenously expressing INDY (NaCT); type: cell-based; conditions: endogenous INDY
# Method: (§1) The compound was obtained by screening of a library containing more than 50,000 lead-like compounds and fragments. The library was tested using a functional citrate uptake assay with HEK293 cells overexpressing recombinant human INDY. The following hit confirmation was conducted in the same assay system. To confirm the activity of selected compounds on the target INDY another cell assay was conducted. In this assay system citrate uptake was measured using HepG2 cells which endogenously express INDY. Furthermore selectivity of selected compounds was tested for two other transporters in different assay systems. The first transporter was the glutamate transporter GLT-1 tested in a glutamate uptake assays using HEK293 cells overexpressing recombinant human GLT-1. The second transporter was the glucose transporter GLUT1 tested in a glucose uptake assay using Huh-7 cells which endogenously express GLUT1. Compounds were considered to be selective with an at least 5-fold higher activity for INDY than for the other two transporters.
# (§2) Cells were maintained in cell medium using cell culture grade flasks (CellSTACK Corning, 500 cm2 dishes or T175 depending on cell number). The selection antibiotic and G418 (800 μg/ml) was added during cultivation but not for seeding into assay plates. For splitting, cells were washed with PBS (w/o Ca2+, Mg2+, phenol red) and detached with Trypsin/EDTA. Throughout cultivation cells were kept sub-confluent. Detached cells (50,000 cells/well) were seeded in 96-well plates (white, clear bottom from Corning #655098) and incubated over night before usage in the assay. The following media were used. For HEK293 cells expressing INDY MEM (PAA)+10% FCS+1×P/S+2 mM L-Gln; for HEK293 cells expressing GLT-1 DMEM (Gibco)+10% FCS+400 µg/ml G418; for Huh7 cells DMEM (Gibco)+10% FCS+2 mM L-Gin (+1×P/S); for HepG2 cells MEM (PAA, Cat # E15-024)+10% FCS+2 mM L-Gin+1×NEAA+1 mM Na-Pyruvat
# (§3) The following assay buffers for the particular uptake reaction were used. Citrate uptake buffer: 120 mM NaCl, 5.4 mM KCl, 0.8 mM MgSO4, 5 mM glucose, 1.8 mM CaCl2, 25 mM Hepes, 25 mM MES, pH 6.5. Glutamate uptake buffer: HBSS, 1 mM CaCl2, 1 mM MgCl2, 20 mM Hepes pH 7.4. Glucose uptake buffer: 25 mM Hepes+25 mM MES pH 7.4, 120 mM NaCl, 5.4 mM KCl, 1.8 mM CaCl2, 0.8 mM MgSO4.
# INDY mediated citrate uptake was also determined in HepG2 cells. To determine the uptake of ^14C labelled citrate into cells, HepG2 cells endogenously expressing human NaCT were used. (Gopal et al. 2007 Am J Physiol Gastrointest Liver Physiol 292).
# HepG2 cells were seeded into white clear-bottom 96-well plates (50,000/well) coated with collagen and incubated at 37° C. for 16-24 hours. After that plates were washed once with assay buffer using automated washing/LS 405 Selectors, BioTek ending with a buffer volume of 40 μl. Then 5 μl of compound solution in assay buffer was added and incubated for 5 min at 37° C. in cell incubator, HERA cell Heraeus. Afterwards 10 μl of substrate 14C-citrate (10 nM) were added and incubated for another 90 min at 37° C. in cell incubator, HERAcell. Then plates were washed 3× with 200 μl buffer and […] cell lysis induced by adding 50 μl ice-cold NaOH (100 mM). Plates were incubated for 25 min at RT on a plate shaker and afterwards 200 μl scintillation fluid was added and incubated for 15 min on a plate shaker at RT and for another 15 min without shaking at RT. Plates were measured using a TopCount system. As a positive control 5 mM citrate was applied. It is possible to use this assay also in analogy in a 384-well plate format.
# INDY [2] = molecular target: T1, INDY; assay: 14C-citrate uptake in HEK293 cells overexpressing recombinant human INDY (NaCT); type: cell-based; set-up: expressed in transfected cells; host or cells: HEK293
# Method: as §1, §2, §3
# INDY mediated citrate uptake was determined in HEK293 cells. To determine the uptake of ^14C labelled citrate into cells, HEK293 cells over-expressing human NaCT were used. Cloning of human NaCT was done in analogy as described in Birkenfeld et al. (Birkenfeld et al., 2011, Cell Metabolism 14, 184-195, 2011).
# Human NaCT HEK293 cells were seeded into white clear-bottom 96-well plates (50,000/well) in the presence of 4 μg/ml Poly-D-Lysine and incubated at 37° C. for 16-24 hours. On the days of the assay the plates were washed once with assay buffer using automated washing/LS 405 Selectors, BioTek ending with a buffer volume of 40 μl. Then 5 μl of compound solution in assay buffer was added and incubated for 5-30 min at 37° C. in cell incubator, HERA cell Heraeus. Afterwards 10 μl of substrate 14C-citrate ([…]/[…] per well) were added and incubated for another 20-90 min at 37° C. in cell incubator, HERAcell. Then plates were washed twice with 200 μl ice-cold assay buffer and residual volume was discarded. For cell lysis 50 μl ice-cold NaOH (100 mM) was added and incubated for 15 minutes at RT on a plate shaker. Finally, 200 μl scintillation fluid (scintillator OptiPhase Supermix, Perkin Elmer) was added. After 15 min incubation at RT without shaking, plates were measured using a TopCount reader system (Perkin Elmer). As a positive control 10 mM citrate was applied. It is possible to use this assay also in analogy in a 384-well plate format.
# T1 sequence (Q86YT5 whole entry, the tested form may be a part): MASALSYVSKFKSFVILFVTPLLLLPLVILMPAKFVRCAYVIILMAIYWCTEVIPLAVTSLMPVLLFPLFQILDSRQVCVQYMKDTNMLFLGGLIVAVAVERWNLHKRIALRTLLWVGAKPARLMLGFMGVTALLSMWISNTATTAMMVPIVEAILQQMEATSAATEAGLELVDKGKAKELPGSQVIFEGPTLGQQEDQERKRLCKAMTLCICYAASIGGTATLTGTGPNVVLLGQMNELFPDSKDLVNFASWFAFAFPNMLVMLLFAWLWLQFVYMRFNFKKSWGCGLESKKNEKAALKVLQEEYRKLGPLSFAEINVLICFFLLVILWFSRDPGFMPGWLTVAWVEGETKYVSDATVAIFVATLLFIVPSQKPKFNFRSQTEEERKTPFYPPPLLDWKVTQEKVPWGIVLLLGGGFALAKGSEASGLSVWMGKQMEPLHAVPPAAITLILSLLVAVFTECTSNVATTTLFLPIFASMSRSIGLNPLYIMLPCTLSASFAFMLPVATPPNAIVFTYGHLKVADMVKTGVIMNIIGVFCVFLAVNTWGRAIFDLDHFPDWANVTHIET
Structure (SMILES),IC50 (INDY [1]),IC50 (INDY [2])
"O=S(=O)(/C=C/c1ccccc1)N1CCC(CNCc2ccccc2F)CC1 [Example 10, [(2-fluorophenyl)methyl]({1-[(E)-phenylethenesulfonyl]piperidin-4-yl}methyl)amine]",> 50000 nM,–
"COc1ccccc1CNC(=O)C1CCN(S(=O)(=O)/C=C/c2ccccc2)CC1 [Example 15, N-[(2-methoxyphenyl)methyl]-1-[(E)-2-phenylethenesulfonyl]piperidine-4-carboxamide]",2700 nM,2900 nM
"COc1cccc(S(=O)(=O)N2CCC(C(=O)NCc3ccccc3F)CC2)c1 [Example 16, N-[(2-fluorophenyl)methyl]-1-(3-methoxybenzenesulfonyl)piperidine-4-carboxamide]",1500 nM,1400 nM
"COc1ccccc1S(=O)(=O)N1CCC(C(=O)NCc2ccccc2F)CC1 [Example 19, N-[(2-fluorophenyl)methyl]-1-(2-methoxybenzenesulfonyl)piperidine-4-carboxamide]",3400 nM,5000 nM
"O=C(NCc1cccc(F)c1)C1CCN(S(=O)(=O)/C=C/c2ccccc2)CC1 [Example 21, N-[(3-fluorophenyl)methyl]-1-[(E)-2-phenylethenesulfonyl]piperidine-4-carboxamide]",> 20000 nM,7400 nM
"O=C(NCc1cccc(F)c1F)C1CCN(S(=O)(=O)/C=C/c2ccccc2)CC1 [Example 22, N-[(2,3-difluorophenyl)methyl]-1-[(E)-2-phenylethenesulfonyl]piperidine-4-carboxamide]",7000 nM,3400 nM
"O=C(NCc1cc(F)ccc1F)C1CCN(S(=O)(=O)/C=C/c2ccccc2)CC1 [Example 23, N-[(2,5-difluorophenyl)methyl]-1-[(E)-2-phenylethenesulfonyl]piperidine-4-carboxamide]",> 20000 nM,4600 nM
"CC(C)Oc1ccc(S(=O)(=O)N2CCC(C(=O)NCc3ccccc3F)CC2)cc1 [Example 24, N-[(2-fluorophenyl)methyl]-1-[4-(propan-2-yloxy)benzenesulfonyl]piperidine-4-carboxamide]",4200 nM,9300 nM
"O=C(NCc1ccccc1F)C1CCN(S(=O)(=O)c2ccc3c(c2)OCO3)CC1 [Example 26, 1-(2H-1,3-benzodioxole-5-sulfonyl)-N-[(2-fluorophenyl)methyl]piperidine-4-carboxamide]",15900 nM,5200 nM
"O=C(NCc1ccccc1F)C1CCN(S(=O)(=O)c2ccc(Cl)cc2)CC1 [Example 27, 1-(4-chlorobenzenesulfonyl)-N-[(2-fluorophenyl)methyl]piperidine-4-carboxamide]",2400 nM,3000 nM
"O=C(NCc1ccccc1F)C1CCN(S(=O)(=O)c2ccc(Cl)c(Cl)c2)CC1 [Example 28, 1-(3,4-dichlorobenzenesulfonyl)-N-[(2-fluorophenyl)methyl]piperidine-4-carboxamide]",15700 nM,> 20000 nM
"O=C(NCc1ccccc1F)C1CCN(S(=O)(=O)c2ccc(-c3ccccc3)cc2)CC1 [Example 30, 1-{[1,1′-biphenyl]-4-sulfonyl}-N-[(2-fluorophenyl)methyl]piperidine-4-carboxamide]",800 nM,800 nM
"O=C(NCc1ccccc1Br)C1CCN(S(=O)(=O)/C=C/c2ccccc2)CC1 [Example 32, N-[(2-bromophenyl)methyl]-1-[(E)-2-phenylethenesulfonyl]piperidine-4-carboxamide]",6700 nM,5100 nM
"CC(C)(C)c1cccc(S(=O)(=O)N2CCC(C(=O)NCc3ccccc3F)CC2)c1 [Example 33, 1-(3-tert-butylbenzenesulfonyl)-N-[(2-fluorophenyl)methyl]piperidine-4-carboxamide]",1000 nM,500 nM
"CCc1ccc(S(=O)(=O)N2CCC(C(=O)NCc3ccccc3F)CC2)cc1 [Example 34, 1-(4-ethylbenzenesulfonyl)-N-[(2-fluorophenyl)methyl]piperidine-4-carboxamide]",4500 nM,1000 nM
"Cc1ccc(S(=O)(=O)N2CCC(C(=O)NCc3ccccc3F)CC2)cc1 [Example 35, N-[(2-fluorophenyl)methyl]-1-(4-methylbenzenesulfonyl)piperidine-4-carboxamide]",2900 nM,1500 nM
"O=C(NCc1ccccc1F)C1CCN(S(=O)(=O)c2ccc(I)cc2)CC1 [Example 36, N-[(2-fluorophenyl)methyl]-1-(4-iodobenzenesulfonyl)piperidine-4-carboxamide]",1000 nM,1000 nM
"COc1ccccc1CNC(=O)C1CCN(S(=O)(=O)c2ccc(C(C)(C)C)cc2)CC1 [Example 38, 1-(4-tert-butylbenzenesulfonyl)-N-[(2-methoxyphenyl)methyl]piperidine-4-carboxamide]",800 nM,300 nM
"CC(C)(C)c1ccc(S(=O)(=O)N2CCC(C(=O)NCc3ccccc3Cl)CC2)cc1 [Example 39, 1-(4-tert-butylbenzenesulfonyl)-N-[(2-chlorophenyl)methyl]piperidine-4-carboxamide]",2100 nM,200 nM
"O=C(NCc1ccccc1O)C1CCN(S(=O)(=O)/C=C/c2ccccc2)CC1 [Example 41, N-[(2-hydroxyphenyl)methyl]-1-[(E)-2-phenylethenesulfonyl]piperidine-4-carboxamide]",3200 nM,1800 nM
"O=C(NCc1ccccc1F)C1CCN(S(=O)(=O)c2ccc(Cl)cc2Cl)CC1 [Example 43, 1-(2,4-dichlorobenzenesulfonyl)-N-[(2-fluorophenyl)methyl]piperidine-4-carboxamide]",400 nM,300 nM
"CC(C)(C)c1ccc(S(=O)(=O)N2CC(C(=O)NCc3ccccc3F)C2)cc1 [Example 46, 1-(4-tert-butylbenzenesulfonyl)-N-[(2-fluorophenyl)methyl]azetidine-3-carboxamide]",9300 nM,9300 nM
"O=C(NCc1ccccc1F)C1CCN(S(=O)(=O)c2ccc3c(c2)OC(F)(F)O3)CC1 [Example 47, 1-[(2,2-difluoro-2H-1,3-benzodioxol-5-yl)sulfonyl]-N-[(2-fluorophenyl)methyl]piperidine-4-carboxamide]",700 nM,700 nM
"O=C(NCc1ccccn1)C1CCN(S(=O)(=O)c2ccc(OC(F)(F)F)cc2)CC1 [Example 58, N-[(pyridin-2-yl)methyl]-1-[4-(trifluoromethoxy)benzenesulfonyl]piperidine-4-carboxamide]",2700 nM,6400 nM
